Data set [1] deals with exendin-4 degradation in rat kidney homogenate. Nature of the data set: Inhibition of exendin-4 metabolism by protease inhibitors in rat kidney homogenate. It counts as biochemical.
Data set [2] has as its system exendin-4 degradation in rat liver homogenate. The data set is described as follows: Inhibition of exendin-4 metabolism by protease inhibitors in rat liver homogenate. It counts as biochemical.
For data set [3] the following is noted: humans, biologically active GLP-1; cited from earlier work. The source says:
(§1) In 2003, the International Diabetes Federation (IDF) estimated that almost 200 million people around the world had diabetes mellitus (DM). Approximately 90–95% of people with DM have type 2 diabetes mellitus (T2DM), which is characterized by hyperglycemia, insulin resistance, absolute or relative insulin deficiency, hyperglucagonemia, and increased hepatic glucose production. An optimal therapy for controlling the circulating glucose levels has not been established, and many currently available therapies are associated with unfavorable side effects, which limit their use. […] Although naturally resist ...

The subject of data set [4] is plasma dipeptidyl peptidase-IV (DPP-IV). The following applies: circulating GLP-1, rat and human plasma DPP-IV; cited from earlier work.
Text: as §1

Where two headings read alike, the source gives them in different places. A value given as a limit tells only on which side of the number the result lay.

Data on ten molecules can be found in paper PMC4344207 (PLoS ONE, 2015).

For `O=C(O)CNC(=O)C(CS)Cc1ccccc1` (racemic) [DL-thiorphan], the “percentage inhibition of exendin-4 degradation, kidney” value (“percentage inhibition … kidney” below) in data set [1] (rat kidney homogenate, inhibitor pre-incubated 10 min at 37°C, then exendin-4 10 μM for 30 min, NEM 10 mM, phenanthroline 2 mM, PPACK 210 μM, soybean 1 mg/mL, DL-thiorphan 2 mM, captopril 30 μM, DFP 10 mM, PMSF 1 mM, amastatin 100 μM, bestatin 2 mM, LC-ESI-MS, n = 3) worked out at 73%. In addition, the “percentage inhibition of exendin-4 degradation, liver” value (shortened to “percentage inhibition … liver”) in data set [2] (rat liver homogenate, inhibitor pre-incubated 10 min at 37°C, then exendin-4 10 μM for 60 min, NEM 10 mM, phenanthroline 2 mM, PPACK 210 μM, soybean 1 mg/mL, DL-thiorphan 2 mM, captopril 30 μM, DFP 10 mM, PMSF 1 mM, amastatin 100 μM, bestatin 2 mM, LC-ESI-MS, n = 3) is on record as “no effect”.
With `c1cnc2c(c1)ccc1cccnc12` [1,10-phenanthroline], the “percentage inhibition … kidney” value in data set [1] was above 77%. Further, the “percentage inhibition … liver” value in data set [2] was above 77%.
Take `CCN1C(=O)C=CC1=O` [NEM, N-ethylmaleimide]: in data set [1], the “percentage inhibition … kidney” value is reported as “not inhibited”. In addition, in data set [2], the “percentage inhibition … liver” value is listed as “not inhibited”.
Take `O=S(=O)(F)Cc1ccccc1` [PMSF, phenylmethylsulfonyl fluoride]: the “percentage inhibition … kidney” value in data set [1] is recorded as 18%. For the same molecule, the “percentage inhibition … liver” value in data set [2] is given as 65%.
On the same counts, the results for `NC(N)=NCCC[C@H](NC(=O)[C@@H]1CCCN1C(=O)[C@H](N)Cc1ccccc1)C(=O)CCl` [PPACK] are 41% and “no effect”.
The like results for `CC(C)C[C@@H](N)[C@H](O)C(=O)N[C@H](C(=O)N[C@H](C(=O)N[C@@H](CC(=O)O)C(=O)O)C(C)C)C(C)C` [amastatin] were, in that order, 32% and 13.2%.
The like results for `CC(C)C[C@H](NC(=O)[C@@H](O)[C@H](N)Cc1ccccc1)C(=O)O` [bestatin] were, in that order, 11% and 48%.
Take `C[C@H](CS)C(=O)N1CCC[C@H]1C(=O)O` [captopril]: the “percentage inhibition … kidney” value in data set [1] was “not inhibited”. In addition, the “percentage inhibition … liver” value in data set [2] is listed as “not inhibited”.
For the molecule glucagon-like peptide 1 [GLP-1], in data set [3], the apparent serum half-life is 1 to 2 min. For the same molecule, the “cleavage by rat and human plasma DPP-IV” value in data set [4] was “rapid proteolytic cleavage”.

B1: trypsin inhibitor (soybean): soybean trypsin inhibitor (protein, UniProt P01070 25-205, looked up)
Trypsin inhibitor A: DFVLDNEGNPLENGGTYYILSDITAFGGIRAAPTGNERCPLTVVQSRNELDKGIGTIISSPYRIRFIAEGHPLSLKFDSFAVIMLCVGIPTEWSVVEDLPEGPAVKIGENKDAMDGWFRLERVSDDEFNNYKLVFCPQQAEDDKCGDIGISIDHDDGTRRLVVSKNKPLVVQFQKLDKESL
With B1, the “percentage inhibition … kidney” value in data set [1] is listed as “no effect”. Besides, the “percentage inhibition … liver” value in data set [2] stood at 20%.
